One data set concerns Aphidius rhopalosiphi. Nature of the data set: LR50; higher = less toxic. The settings on record: not reported; other.
The subject of the next data set is Colinus virginianus. Particulars: acute; oral; diet; mortality.
For a further data set, the system named is Daphnia magna. Particulars: chronic/long-term; duration: 21 days; other.
Another data set deals with Apis mellifera. Particulars: acute, mortality.
Another data set deals with Oncorhynchus mykiss. Particulars: chronic/long-term; duration: 21 days.
The subject of a further data set is Bibionidae. The settings on record: chronic/long-term.
In another data set the test system is Typhlodromus pyri. The settings on record: not reported; other.
The test system of a further data set is Lepomis macrochirus. The settings on record: acute; duration: 96 hours; mortality.

In brackets after ≈: the same amount, converted by molar mass.

`Cc1cc(C2CC2)nc(Nc2ccccc2)n1` [Cyprodinil]: in the data set on Aphidius rhopalosiphi, the LR50 was 750 g/ha. The LC50 in the data set with Colinus virginianus was over 743 mg/kg; in the data set with Tagia sp. (acute, duration: 14 days, mortality), 192 mg/kg; with Lepomis macrochirus, 2.17 µg/mL (≈ 9.63 µM). Also, the NOEC amounted to 0.0082 mg/L in the data set on Daphnia magna; 64 mg/kg in the data set on Anas platyrhynchos (reproductive); 0.083 mg/L in the data set on Oncorhynchus mykiss; 80 mg/kg with Bibionidae (duration: 27 days, other); 0.24 mg/L with Bibionidae (duration: 28 days, no effects); 15000 g/ha in the data set on Tagia sp. (chronic/long-term, duration: 56 days, reproduction). In addition, the LD50 is over 784 µg/piece with Apis mellifera (duration: 48 hours, dermal); over 112 µg/piece with Apis mellifera (oral, unspecified); over 500 mg/kg in the data set with Anas platyrhynchos (acute, oral, unspecified, mortality); over 2000 mg/kg in the data set on Rattus norvegicus (acute, oral, mortality). Further, the LEL with Typhlodromus pyri was found to be 750 g/ha. Also, the NOAEL (usually the highest dose or exposure tested at which no adverse effect was seen) in the data set on Rattus norvegicus (chronic, duration: 2 years, M/F, organ weight) was 3 mg/kg-day; with Rattus norvegicus (reproduction developmental, organ weight), 72.7 mg/kg-day; in the data set on Rattus norvegicus (subchronic, duration: 90 days, histopathology: nonneoplastic) it was 3.14 mg/kg-day.
